Values joined by “and” are separate entries in the source; they are usually repeats but may differ in a detail not shown here. Equal entries are not always repeated. “Also recorded” adds a separate entry of the source.
Assays:
[1] = Pharmacokinetic study after IV administration, rat serum and urine; conditions: for fe, fraction excreted unchanged in urine: administered compound intact in urine; for CLhepatic: n = 3, CLtot minus CLrenal
[2] = in vivo; conditions: male, Sprague-Dawley, rat, serum, po, 10 mg/kg, F, Dox after PO Dox 10 mg/kg, n = 3
[3] = test system: rat cardiac Troponin-I (cTnI); experiment: Cardiac toxicity, serum cardiac Troponin-I (cTnI) ELISA after single IV dose; assay type: in vivo; conditions: for cTnI concentrations in serum: 12, 24 and 48 h after single IV 10 mg/kg Dox or equimolar DoxQ
Procedure: Samples were centrifuged to obtain the serum and stored at −20 °C in a freezer until analysis. On the day of the analysis, cTnI concentrations were measured in serum samples following the manufacturer’s instructions. The area under the effect curve (AUEC) was calculated for cTnI concentrations at 12–48 h post-dosing using the trapezoidal rule by WinNonlin® software.

[4] = test system: β-N-acetylglucosaminidase (NAG); experiment: Renal toxicity, β-N-acetylglucosaminidase (NAG) in rat urine after single IV dose; assay type: in vivo; conditions: after single IV 10 mg/kg Dox or equimolar DoxQ
Procedure: Urine samples from pharmacokinetics experiments were collected from metabolic cages at 0 h, 12 h, 24 h, and 48 h and stored at −20 °C until analysis. Concentrations of NAG urine samples were measured using an assay kit from ALPCO Diagnostics (Salem, NH, USA, cat. No. 73-1290050) on a Medica EasyRA automated clinical chemistry analyzer (Medica Corporation, Bedford, MA, USA).

[5] = Renal toxicity, urinary output over 24 h after single IV dose; assay type: in vivo, rat; conditions: 24 h after single IV 10 mg/kg Dox or equimolar DoxQ
Procedure: The total urine volume excreted over 24 h post-dosing was compared to the total urine volume excreted over 24 h pre-dosing.

[6] = parameters: method as in PMID 28462502; conditions: in vitro; cited from earlier work
[7] = Predicted physicochemical properties (VCCLAB, MarvinSketch, GastroPlus); conditions: predicted values
Procedure: LogP and LogS values of DoxQ were predicted using an online computer software (VCCLAB, Virtual Computational Chemistry Laboratory). pKa, logP, logD at pH 7.4, intrinsic solubility, and solubility at pH 7.4 were calculated using MarvinSketch v. […] 9.0.0007 (Simulations Plus, Inc., Lancaster, CA, USA). […] The melting point of DoxQ was experimentally determined by MEL-TEMPII melting point apparatus from Laboratory Devices (Holliston, MA, USA).

[8] = Intestinal lymphatic delivery, mesenteric lymph duct cannulated rat model; assay type: in vivo, male Sprague–Dawley rats; conditions: over one hour after oral 10 mg/kg, n = 3
Text: The intestinal transport of DoxQ via lymphatics was examined in vivo by two methods.
Six male Sprague–Dawley rats (~300 g) were obtained from Charles River Labs (Montreal, QC, Canada) and given food (Purina Rat Chow 5001) and water ad libitum in the animal facility for at least three days before use. On the day of surgical operation, rats were anesthetized by isoflurane and the abdominal hair was shaved. Rats were maintained under inhaled anesthesia on a warm surgical table. A ~2.5 cm abdominal midline skin incision was made and extended through the musculature using blunt dissection beginning the incision at a point just above the xyphoid cartilage and proceeding distally. […] The lymph duct was isolated from the surrounding connective tissue and a small incision was made with a bent 23 G needle in the ventral wall of the lymph. A catheter was inserted through the incision and secured by placing a small cellulose patch with a drop of Vetbond^TM over the point of insertion into the lymph duct. When a gradual and continuous flow of lymph was observed, an initial lymph sample was collected into a normal microtube. […] Thereafter, lymph samples were collected over one hour after dosing. The animals were euthanized after the last lymph sample collection.

[9] = in vivo; conditions: male, Sprague-Dawley, rat, iv, 10 mg/kg
[10] = test system: CYP3A4; parameters: method as in PMID 28462502; conditions: in vitro; cited from earlier work
[11] = test system: P–gp-positive (MDCK–MDR) cells; parameters: method as in PMID 28462502; conditions: cited from earlier work
[12] = test system: rat cardiomyocytes; parameters: method as in PMID 28462502; conditions: cited from earlier work
[13] = test system: CYP1B1; parameters: method as in PMID 28462502; conditions: expression and catalytic activity; cited from earlier work
[14] = test system: triple negative murine breast cancer cell line; parameters: method as in PMID 28462502; conditions: cited from earlier work
[15] = test system: human cardiomyocytes; parameters: method as in PMID 28462502; conditions: cited from earlier work
[16] = administered compound intact in rat serum, IV Dox 10 mg/kg or equimolar DoxQ, mean ± SEM
[17] = IV Dox 10 mg/kg or equimolar DoxQ
[18] = administered compound intact, IV Dox 10 mg/kg or equimolar DoxQ
[19] = male, Sprague-Dawley, rat, serum, iv, 10 mg/kg

## COc1cccc2c1C(=O)c1c(O)c3c(c(O)c1C2=O)C[C@@](O)(C(=O)CO)C[C@@H]3O[C@H]1C[C@H](N)[C@H](O)[C@H](C)O1 [Dox, Doxorubicin]
Dox after PO Dox 10 mg/kg, n = 3
  F, bioavailability: 8.57 ± 0.71%
[1]; IV, equimolar doses
  Vss of Dox relative to Vss of DoxQ: ~ 80 fold
[1]; [16]
  C0: 24.7 ± 14.2 µg/mL
  Clast: 0.12 ± 0.03 µg/mL
[1]; [17]
  fe, fraction excreted unchanged in urine: ~ 11% and 10.73 ± 3.14%
[1]; [18]
  CLhepatic: 2.35 ± 0.36 L/h/kg
[1]; [19]
  AUC(0-inf): 4.79 ± 1.83 µg·h/mL
  AUC(0-t): 3.97 ± 0.7 µg·h/mL
  CL renal: 0.28 L/h/kg
  clearance: 2.63 L/h/kg
  half-life: 4.69 ± 0.8 h
  k el: 4.44e-05 s⁻¹
[1]; male, Sprague-Dawley, rat, serum, iv, 10 mg/kg, C0, administered compound intact in rat serum, IV Dox 10 mg/kg or equimolar DoxQ, mean ± SEM
  C0: ~25 µg/mL
[1]; male, Sprague-Dawley, rat, serum, iv, 10 mg/kg, Vss, administered compound intact, IV Dox 10 mg/kg or equimolar DoxQ, mean ± SEM
  Vd: 6.35 ± 2.11 L/kg
[2]
  bioavailability: ~8.5%
[3]
  cTnI concentrations in serum: increase in cTnI
[4]
  Cumulative amount of NAG excreted in urine: higher cumulative amounts
[5]
  Total urine volume over 24 h: no significant difference

## COc1cccc2c1C(=O)c1c(O)c3c(c(O)c1C2=O)CC(O)(C(=O)CO)CC3OC1CC(NC(=O)CNC(=O)Oc2ccc(-c3oc4cc(O)cc(O)c4c(=O)c3O)cc2O)C(O)C(C)O1 (centres unmarked) [DoxQ]
PO DoxQ
  Intact DoxQ in serum after oral dosing: not detected
[6]
  Release of Dox and quercetin from DoxQ: controlled release of both Dox and quercetin released from DoxQ over four days
[7]
  LogP of DoxQ relative to Dox: 3–5 fold
[7]; pH 7.4
  LogD7.4 of DoxQ relative to Dox: 25 fold
[8]
  Cumulative amount of Dox in mesenteric lymph fluid, compared to after Dox: twice as high; also recorded: two-fold higher
[9]
  AUC(0-t): 18.6 ± 1.98 µg·h/mL
  CL renal: 0.02 L/h/kg
  clearance: 0.53 L/h/kg
  half-life: 9.6 ± 18 min
  k el: 0.00127 s⁻¹
[9]; C0, administered compound intact in rat serum, IV Dox 10 mg/kg or equimolar DoxQ, mean ± SEM
  C0: ~108 µg/mL
[9]; Vss, administered compound intact, IV Dox 10 mg/kg or equimolar DoxQ, mean ± SEM
  Vd: 0.138 ± 0.015 L/kg
[10]
  Inhibition of CYP3A4: inhibited
[1]; IV, equimolar doses
  AUC of intact DoxQ relative to AUC of Dox after Dox: 5 fold
  C0 / serum concentration of intact DoxQ relative to Dox after Dox: 4–5 fold and 5 fold
[1]; [16]
  C0: 108 ± 26.4 µg/mL
  Clast: 1.11 ± 0.17 µg/mL
[1]; [17]
  fe, fraction excreted unchanged in urine: ~ 5% and 4.32 ± 1.005%
[1]; administered compound intact, IV Dox 10 mg/kg or equimolar DoxQ, mean ± SEM
  Vss: 0.08 ± 0.015 L/kg
[1]; [18]
  CLhepatic: 0.51 ± 0.06 L/h/kg
[3]; 10 mg/kg
  cTnI concentrations in serum: also had an increase in cTnI at each time point
[3]; 12–48 h after single IV 10 mg/kg Dox or equimolar DoxQ
  AUEC of cTnI concentrations: lower than the AUEC after Dox
[11]
  Cellular uptake compared to free Dox: higher cellular uptake
[4]; 10 mg/kg
  Cumulative amount of NAG excreted in urine: lower after IV DoxQ than Dox
[12]
  Toxicity to cardiomyocytes compared to Dox: less toxic; also recorded: less cardiotoxic than Dox
[13]
  Effect on CYP1B1: inhibitory effects
[5]
  Total urine volume over 24 h: no significant difference
[14]
  Anti-cancer activity: retained anti-cancer activity
[15]
  Toxicity to cardiomyocytes compared to Dox: less toxic; also recorded: less cardiotoxic than Dox

Reference: paper PMC5620576 (Pharmaceutics, 2017)
